Measurements from ChEMBL document CHEMBL1201862, “PubChem BioAssay data set” (2004).
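Where inhibition never reached the appropriate level, the endpoint shown equals the highest concentration tested. Otherwise, values were interpolated linearly from a five-concentration, 48-hour dose response in 96-well plates. GI50 is the concentration that inhibits growth by half.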 Active and inactive are the calls of the source. Cut-off read from the data, not from the text of the source: active = GI50 up to about 1.1 µM and inactive = higher.

Legend:
Assay in all cases: NCI-60 cell line screen, 48 h
[1] = system: NCI-H23
[2] = system: 786-0
[3] = system: OVCAR-4
[4] = system: UO-31
[5] = system: U-251
[6] = system: NCI-H460
[7] = system: OVCAR-5
[8] = system: SN12C
[9] = system: CCRF-CEM
[10] = system: NCI-H226
[11] = system: SW-620
[12] = system: COLO 205
[13] = system: T47D
[14] = system: RXF 393
[15] = system: SK-MEL-28
[16] = system: UACC-257
[17] = system: EKVX
[18] = system: SF-295
[19] = system: PC-3
[20] = system: A498
[21] = system: SK-MEL-2
[22] = system: SK-MEL-5
[23] = system: A549
[24] = system: BT-549
[25] = system: NCI/ADR-RES
[26] = system: UACC-62
[27] = system: KM12
[28] = system: SR
[29] = system: MDA-MB-435
[30] = system: MDA-MB-231
[31] = system: SF-539
[32] = system: CAKI-1
[33] = system: LOX IMVI
[34] = system: HOP-92
[35] = system: HCT-116
[36] = system: MDA-N
[37] = system: SNB-75
[38] = system: IGROV-1
[39] = system: M14
[40] = system: HT-29
[41] = system: SNB-19
[42] = system: DU-145
[43] = system: OVCAR-3
[44] = system: MOLT-4
[45] = system: HCC 2998
[46] = system: RPMI-8226
[47] = system: ACHN
[48] = system: K562
[49] = system: OVCAR-8
[50] = system: MCF7
[51] = system: HOP-62
[52] = system: HCT-15
[53] = system: SK-OV-3
[54] = system: NCI-H522
[55] = system: HL-60
[56] = system: Malme-3M
[57] = system: TK-10
[58] = system: SF-268

CC1(C)OCC2OC3([C@H]4OC(C)(C)O[C@@H]4CO)OC(C)(C)OC3C2O1 (stereo not given in full)
GI50 [1]: > 100 µM (inactive)
GI50 [2]: > 100 µM (inactive)
GI50 [3]: > 100 µM (inactive)
GI50 [4]: > 100 µM (inactive)
GI50 [5]: > 100 µM (inactive)
GI50 [6]: > 100 µM (inactive)
GI50 [7]: > 100 µM (inactive)
GI50 [8]: > 100 µM (inactive)
GI50 [9]: > 100 µM (inactive)
GI50 [10]: > 100 µM (inactive)
GI50 [11]: > 100 µM (inactive)
GI50 [12]: > 100 µM (inactive)
GI50 [13]: > 100 µM (inactive)
GI50 [14]: > 100 µM (inactive)
GI50 [15]: > 100 µM (inactive)
GI50 [16]: > 100 µM (inactive)
GI50 [17]: > 100 µM (inactive)
GI50 [18]: > 100 µM (inactive)
GI50 [19]: > 100 µM (inactive)
GI50 [20]: > 100 µM (inactive)
GI50 [21]: > 100 µM (inactive)
GI50 [22]: > 100 µM (inactive)
GI50 [23]: > 100 µM (inactive)
GI50 [24]: > 100 µM (inactive)
GI50 [25]: > 100 µM (inactive)
GI50 [26]: > 100 µM (inactive)
GI50 [27]: > 100 µM (inactive)
GI50 [28]: > 100 µM (inactive)
GI50 [29]: > 100 µM (inactive)
GI50 [30]: > 100 µM (inactive)
GI50 [31]: > 100 µM (inactive)
GI50 [32]: > 100 µM (inactive)
GI50 [33]: > 100 µM (inactive)
GI50 [34]: > 100 µM (inactive)
GI50 [35]: > 100 µM (inactive)
GI50 [36]: > 100 µM (inactive)
GI50 [37]: > 100 µM (inactive)
GI50 [38]: > 100 µM (inactive)
GI50 [39]: > 100 µM (inactive)
GI50 [40]: > 100 µM (inactive)
GI50 [41]: > 100 µM (inactive)
GI50 [42]: > 100 µM (inactive)
GI50 [43]: > 100 µM (inactive)
GI50 [44]: > 100 µM (inactive)
GI50 [45]: > 100 µM (inactive)
GI50 [46]: > 100 µM (inactive)
GI50 [47]: > 100 µM (inactive)
GI50 [48]: > 100 µM (inactive)
GI50 [49]: > 100 µM (inactive)
GI50 [50]: > 100 µM (inactive)
GI50 [51]: > 100 µM (inactive)
GI50 [52]: > 100 µM

COc1ccc(C2C3CCc4ccccc4C3=NN2S(=O)(=O)c2ccc(/C=C/C(=O)O)cc2)cc1 (stereo not given)
GI50 [53]: 1.55 µM (inactive)
GI50 [1]: < 0.01 µM (active)
GI50 [2]: 1.82 µM (inactive)
GI50 [3]: 7.23 µM (inactive)
GI50 [4]: 5.74 µM (inactive)
GI50 [5]: 3.21 µM (inactive)
GI50 [6]: 3.52 µM (inactive)
GI50 [54]: 2.31 µM (inactive)
GI50 [7]: 9.91 µM (inactive)
GI50 [8]: 6.25 µM (inactive)
GI50 [9]: 3.46 µM (inactive)
GI50 [10]: 5.98 µM (inactive)
GI50 [11]: 3.18 µM (inactive)
GI50 [12]: 2 µM (inactive)
GI50 [13]: 7.06 µM (inactive)
GI50 [14]: 3.15 µM (inactive)
GI50 [55]: 3.07 µM (inactive)
GI50 [17]: 8.99 µM (inactive)
GI50 [18]: 2.93 µM (inactive)
GI50 [19]: 3.98 µM (inactive)
GI50 [21]: 2.71 µM (inactive)
GI50 [22]: 4.01 µM (inactive)
GI50 [23]: 5.11 µM (inactive)
GI50 [24]: 10.4 µM (inactive)
GI50 [25]: 1.75 µM (inactive)
GI50 [26]: 2.82 µM (inactive)
GI50 [27]: 1.82 µM (inactive)
GI50 [28]: 0.869 µM (active)
GI50 [29]: 1.07 µM (active)
GI50 [30]: 4.84 µM (inactive)
GI50 [31]: 2.3 µM (inactive)
GI50 [32]: 8.93 µM (inactive)
GI50 [33]: 4.73 µM (inactive)
GI50 [34]: 11.6 µM (inactive)
GI50 [35]: 3.53 µM (inactive)
GI50 [36]: 1.42 µM (inactive)
GI50 [56]: 2.77 µM (inactive)
GI50 [38]: 0.755 µM (active)
GI50 [57]: 6.79 µM (inactive)
GI50 [39]: 4.75 µM (inactive)
GI50 [40]: 3.33 µM (inactive)
GI50 [41]: 7.29 µM (inactive)
GI50 [42]: 22.1 µM (inactive)
GI50 [58]: 5.35 µM (inactive)
GI50 [43]: 3.99 µM (inactive)
GI50 [44]: 3.61 µM (inactive)
GI50 [46]: 3.07 µM (inactive)
GI50 [47]: 3.21 µM (inactive)
GI50 [48]: 2.84 µM (inactive)
GI50 [49]: 11 µM (inactive)
GI50 [50]: 2.1 µM (inactive)
GI50 [51]: 5.61 µM (inactive)
GI50 [52]: 0.188 µM
